Like-named read-outs stand apart in the source and are kept apart here.
Assays:
[1] = system: anxiety (mice); conditions: rodents; Crawley / Jones; cited from earlier work
[2] = system: exploratory behavior of the rat; conditions: McElroy et al.; cited from earlier work
[3] = system: CCK-A receptors; conditions: cited from earlier work
[4] = Deschodt-Lanckman et al.; cited from earlier work
[5] = system: CCK-B receptors; conditions: cited from earlier work
[6] = system: exploratory behavior of the rat; assay: Exploratory behavior in automated activity cages, novel environment; assay type: in vivo, rat (Male Sprague Dawley)
Experimental: (§1) B. The effects of CCK-8 and compound A on the exploratory behavior of the rat were examined in automated activity cages and by direct observation. It is known that exogenous CCK-8 decreases exploratory behavior in rats in a novel environment by accelerating the process of habituation. [See Crawley, Pharm. Biochem & Behav. 20, 23-27 (1984).]
Expt 1. Male Sprague Dawley rats were injected ([…].) with CCK-8 and immediately placed in automated activity cages. Activity was measured for 30 minutes past injection.
Expt 2. Male SD rats were injected (s.c.) with the CCK antagonist compound A (0.0001-10 mg/kg) and immediately placed in the automated activity cages.

[7] = system: humans; conditions: cited from earlier work
[8] = system: CCK-A and CCK-B receptors; conditions: cited from earlier work
[9] = system: anxiety (mice); assay: Black/white exploration test (anxiolytic activity); assay type: in vivo, mouse (male DBA2)
From the text: The black/white exploration test [Crawley et al. Pharmacology, Biochemistry and Behav. 13, 167 (1980)] is a simple animal model of anxiety. Rodents placed in a two compartment box which consists of a brightly lit, white painted side and a dimly lit, black painted side, display a marked preference for the black side of the apparatus. This behavior is caused by the aversive properties of the brightly lit, white painted section. Classical anxiolytic drugs [such as diazepam, see Crawley, supra] and novel anxiolytic drugs [such as 5HT3 antagonists, see Jones et al. Br. J. Pharm.
A. Naive male DBA2 mice (25-30) were housed on a reversed light/dark cycle and tested during the dark phase of the cycle under dim red light. The apparatus consisted of an open topped box (40 cm long×27 cm wide×27 cm high) divided into a small area (2/5) and a large area (3/5) by a partition that extended 20 cm above the walls. There was a 7.5×7.5 cm opening in the partition at floor level. The small compartment was painted black and the large compartment white. The floor of each compartment was marked into 9 cm squares. The white compartment was illuminated by a 100 W tungsten bulb 17 cm above the box and the black compartment by a similarly placed 60 W red bulb.
Animals that had been injected with drug or vehicle were placed individually into the centre of the white area and their behavior observed during a 5 minute period by remote video recording. Four behavioral parameters were recorded every minute: the number of exploratory rears in the white and black sections, the number of line crossings in the black and white sections, the number of transitions between the two sections and the time spent in the black and white sections. Animals were tested in treatment groups of 8-10 and vehicle controls were run on each test day. Data were analysed by ANOVA and Dunnetts test.

[10] = system: exploratory behavior of the rat; assay: Exploration in a novel environment by direct observation (perspex cage); assay type: in vivo; conditions: 0.1 mg/kg
From the text: as §1
Expt 3. In order to assess further the effect of Compound A on exploration in a novel environment, the motoric hehaviors of rats placed in a perspex cage was recorded by direct observation for a 15 minute period 15 minutes after treatment with Compound A.
Experimenters (unaware of the treatments the animals had received) recorded the frequency and duration of rearing, sniffing, grooming and cage crossing using a keypad interfaced to a BBC microcomputer.

With `CN1C(=O)CN=C(c2ccccc2)c2cc(Cl)ccc21` [diazepam] as the compound, how does the “Preference of the animal for the black dimly lit side” value [1] read?
The value was “decrease the preference of the animal for the black dimly lit side of the apparatus”.

For `CNC1=Nc2ccc(Cl)cc2C(c2ccccc2)=[N+]([O-])C1` [chlordiazepoxide], which “Spontaneous locomotor activity in rats in a novel environment” value [2] is on record?
Its value is “increases spontaneous locomotor activity”.

For `CSCC[C@H](NC(=O)[C@H](Cc1ccc(OS(=O)(=O)O)cc1)NC(=O)[C@@H](N)CC(=O)O)C(=O)NCC(=O)N[C@@H](Cc1c[nH]c2ccccc12)C(=O)N[C@@H](CCSC)C(=O)N[C@@H](CC(=O)O)C(=O)N[C@@H](Cc1ccccc1)C(N)=O` [CCK-8s, H-Asp-Tyr(SO3 H)-Met-Gly-Trp-Met-Asp-Phe-NH2], which “Affinity for CCK-A receptors” value [3] is on record?
The value was “high affinity”.

And the Half-life [4]?
The Half-life was “less than 1 hour”.

And the “Affinity for CCK-B receptors” value [5]?
Its value is “high affinity”.

With “CCK-8: exogenous CCK-8, equipotent as an agonist at CCK-A and CCK-B receptors” as the compound, how does the Locomotor activity ([6]; CCK-8 0.5-16 μg/kg i.p., 30 minutes, F(6,87)=3.21 (p<0.01)) read?
Its Locomotor activity is “dose-dependently decreased locomotor activity”.

What about the “Effect in humans (panic, gastrointestinal effects)” value ([7]; studies in humans) of the same compound?
The value was “induced gastrointestinal effects but not panic symptoms”.

And the “Receptor selectivity as agonist” value [8]?
Its value is “equipotent as an agonist at CCK-A and CCK-B receptors”.

Which results are given for `CN1C(=O)[C@@H](NC(=O)c2cc3ccccc3[nH]2)N=C(c2ccccc2)c2ccccc21` [Compound A, 3(S)-(-)-1,3-dihydro-3-(2-indolecarbonylamino)-1-methyl-5-phenyl-2H-1,4-benzodiazepin-2-one]?
Habituation and period of exploratory activity ([6]; 0.0001-10 mg/kg s.c., F(6,124)=2.54, p<0.05): delayed habituation and prolonged the period of exploratory activity of the rats; Level of activity at 25 minutes ([6]; 0.1 mg/kg s.c., 25 minutes, F(6.124)=3.18, p<0.01): significantly above controls; Level of activity at 25 minutes ([6]; doses higher and lower than 0.1 mg/kg, bell-shaped dose response): no significant effect on activity; Preference for locomotion (line crossings) in the black side ([9]; 0.5, 5.0 and 500 ug/kg): abolished the preference for locomotion (line crossings) in the black side; Difference in time spent in the black and white side ([9]; 5.0 and 500 ug/kg): abolished; Active dose range ([9]; black/white exploration test, mice): 0.05 to 5.0 µg/kg; Preference for rearing in the black side ([9]; doses of 0.05, 0.5, 5.0 and 500 ug/kg): significantly decreased the preference for rearing in the black side; Cage crossing ([10]; F(3,43)=3.79, P<0.05): significantly increased; Sniffing ([10]; F(3,43)=3.96, P<0.01): significantly increased; Rearing ([10]; F(3,43)=4.77, P<0.01): significantly increased

With `CSCC[C@H](NC(=O)[C@@H](N)Cc1c[nH]c2ccccc12)C(=O)N[C@@H](CC(=O)O)C(=O)N[C@@H](Cc1ccccc1)C(N)=O` [CCK-4] as the compound, how does the “Effect in humans (panic, gastrointestinal effects)” value ([7]; in vivo) read?
The value was “induce panic”.

What about the “Affinity for CCK-A receptors” value [3] of the same compound?
The value was “lower affinity”.

And the “Affinity for CCK-B receptors” value [5]?
Its value is “high affinity”.

What about the “Receptor selectivity as agonist” value [8] of the same compound?
Its value is “preferential CCK-B receptor agonist”.
